Test results from publication PMC2714806 (2009).
Values joined by “and” are separate entries in the source; they are usually repeats but may differ in a detail not shown here. Equal values may be shown once. “Also recorded” adds a separate entry of the source. Ends that are not written are not given here.

How the values were obtained:
[1] = system: NR1a/NR2A-, NR1a/NR2B-, NR1b/NR2A-, and NR1b/NR2B-containing receptors; settings: cited from earlier work
NMDA receptor = settings: cited from earlier work
NR1b/2B NMDA receptor = format: cell-based; settings: pH 7.35
[2] = format: binding; settings: pH 6.5
[3] = format: physicochemical; settings: pH 6.5
NR1b/2A NMDA receptor = format: cell-based; settings: pH 7.35
[4] = system: NR1b/2A and NR1b/2B NMDA receptors; format: cell-based; settings: 40 µM
[5] = format: binding; settings: pH 6.5; remark: listed apart in the source
[6] = format: physicochemical; settings: pH 6.5; remark: listed apart in the source

Substance: con-T: naturally-occurring conantokin derived from Conus tulipa (GEEEYQKMLENLREAEVKKNA; ends and bridges not checked; UniProt P17684 1-21, looked up)
- antagonism of NMDA receptor activity ([1]; 40 µM): completely antagonizes NMDA receptor activity at all subunit combinations
- inhibition of current flow through the NMDA receptor (NMDA receptor): potent and selective inhibitor of current flow through the NMDA receptor

Substance: con-T[γ4E,K7γ,V17γ] [con-T-tri]
- effect on NMDA-evoked current (NR1b/2B NMDA receptor): modest inhibitory activity
- Kd [2]: 26 µM
- MWapp (apparent molecular weight) [3]: 3320 ± 300 and 6490 ± 450 and 3460 ± 190
- self-association [3]: did not result in marked self-association
- effect on NMDA-evoked current (NR1b/2A NMDA receptor): current potentiation; also recorded: Potentiation of currents
- NR2A-/NR2B-selectivity [4]: NR2B selective
- n (stoichiometry of metal ion binding) [5]: 1.0
- helicity (in words) [6]: marginal helicity; also recorded: high percentage of helix content; also recorded: negligible helicity; also recorded: highly helical character

Substance: con-T[M8N]: Met8-substituted con-T peptide (GEEEYQKNLENLREAEVKKNA; ends and bridges not checked; UniProt P17684 1-21, looked up, variant M8N)
- NR2A-/NR2B-selectivity [1]: non-selective

Substance: GEγγYQγMLγNLRγAEVKKNA-NH2 [con-T[K7γ]]
- inhibition of ion flow through NMDA receptor complexes (NMDA receptor): potent and specific inhibitors
